US8492405B2, “Glucokinase-activating fused heterocyclic compounds and methods of treating diabetes and obesity” (Takeda Pharmaceutical Company Limited, priority 2006, dated 2013)

Experiments:
[1] = biological target: T1, GST-hLGK1 (human liver type GK) (Homo sapiens, UniProt P35557); assay: Determination of GK activity value (Mant-ATP/Mant-ADP capillary electrophoresis); type: biochemical; conditions: GK activation; GST-hLGK1, D-glucose, 37° C. for 60 min
T1 construct: made in house; host or cells: Escherichia coli BL21
T1 sequence (P35557 1-464 isoform P35557-3): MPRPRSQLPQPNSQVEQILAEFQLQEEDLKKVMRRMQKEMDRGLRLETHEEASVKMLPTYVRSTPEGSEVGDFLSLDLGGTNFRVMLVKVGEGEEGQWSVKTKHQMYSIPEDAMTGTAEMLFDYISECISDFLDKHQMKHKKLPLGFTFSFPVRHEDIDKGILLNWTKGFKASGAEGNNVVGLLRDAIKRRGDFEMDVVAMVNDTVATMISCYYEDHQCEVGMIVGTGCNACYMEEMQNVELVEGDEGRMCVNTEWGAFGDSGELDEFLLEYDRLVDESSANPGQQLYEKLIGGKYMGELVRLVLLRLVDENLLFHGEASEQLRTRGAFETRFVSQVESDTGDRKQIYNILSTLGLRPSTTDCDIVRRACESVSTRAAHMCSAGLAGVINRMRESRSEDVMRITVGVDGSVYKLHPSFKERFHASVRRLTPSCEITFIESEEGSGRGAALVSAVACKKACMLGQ
Description: A solution (5 μL) of test compound in 50% dimethyl sulfoxide was added to each well of 384 well black plate (Nalge Nunc International K.K.). Then, a solution (35 μL) obtained by diluting GST-hLGK1 obtained in Reference Example 2A with measurement buffer (containing 50 mM HEPES (pH 7.4), 200 mM KCl, 5 mM MgCl2, 2.5 mM DTT and 50 μM 2′-(or -3′)—O—(N-methylanthraniloyl) adenosine 5′-triphosphate (Mant-ATP) (Jena Bioscience GmbH)) to 6 μg/mL was added to each well.
Each well was stood at 37° C. for 10 min, and 25 mM D-glucose solution (10 μL) was added to start the reaction.
Each well after the reaction was stood at 37° C. for 60 min, and the reaction was quenched by adding 25 μL of a quenching solution (containing 200 mM HEPES (pH 7.4), 20 mM MgCl2, 200 mM EDTA, 0.03% Triton-X 100, 0.3% Coating 3 reagent (Caliper Life Sciences, Inc.)).
2′-(or -3′)-O—(N-methylanthraniloyl)adenosine 5′-triphosphate (Mant-ATP, substrate) and Mant-ADP (reaction resultant product) were separated from each well after the reaction by a microchip type capillary electrophoresis apparatus 250 HTS (Caliper Life Sciences, Inc.). The reaction rate [(reaction resultant product peak height)/(reaction resultant product peak height+substrate peak height)×100(%)] was calculated from the ratio of the substrate peak height and reaction resultant product peak height obtained by fluorescence detection (excitation wavelength 355 nm, measurement wavelength 460 nm) and used as the index of GK activity.
As a control group, the reaction rate was calculated in the same manner as above except that “solution in 50% dimethyl sulfoxide (free of a test compound)” was used instead of “solution of test compound in 50% dimethyl sulfoxide”.
Using the percentage obtained by subtracting the reaction rate of the control group from the reaction rate of the well added with the test compound (test compound addition group) as a GK activation value of the test compound, a concentration dependency curve of the test compound was drawn, and the concentration of the test compound at the middle point between the maximum activity value of the test compound addition group and the activity value of the control group was taken as an EC50 value.

Row | Compound | EC50 [1] | melting point
1 | CCOC(=O)c1cc2c([nH]1)c(N(C)S(=O)(=O)c1cccs1)cn2Cc1ccccc1 [Example 18, ethyl 4-benzyl-6-[methyl(2-thienylsulfonyl)amino]-1,4-dihydropyrrolo[3,2-b]pyrrole-2-carboxylate] | 430 nM | 120 °C
2 | CC(=O)c1cc2sc(C)c(N(C)S(=O)(=O)c3cccs3)c2[nH]1 [Example 14, N-(5-acetyl-2-methyl-4H-thieno[3,2-b]pyrrol-3-yl)-N-methylthiophene-2-sulfonamide] |  | 220 °C
3 | CCOC(=O)c1nnc(-c2cc3sc(C)c(N(C)S(=O)(=O)c4cccs4)c3[nH]2)s1 [Example 10, ethyl 5-{2-methyl-3-[methyl(2-thienylsulfonyl)amino]-4H-thieno[3,2-b]pyrrol-5-yl}-1,3,4-thiadiazole-2-carboxylate] |  | 209 °C
4 | CCOC(=O)c1cc2nc(C)n(Cc3ccccc3)c2[nH]1 [Example 1, ethyl 3-benzyl-2-methyl-3,4-dihydropyrrolo[2,3-d]imidazole-5-carboxylate] | 3600 nM | 193 °C
5 | CCn1cc(N(C)S(=O)(=O)c2cccs2)c2[nH]c(C3=NCCS3)cc21 [Example 17, N-[5-(4,5-dihydro-1,3-thiazol-2-yl)-1-ethyl-1,4-dihydropyrrolo[3,2-b]pyrrol-3-yl]-N-methylthiophene-2-sulfonamide] | 350 nM | 163 °C
6 | COC(OC)C1CN=C(c2cc3sc(C)c(N(C)S(=O)(=O)c4cccs4)c3[nH]2)S1 (centres unmarked) [Example 12, N-{5-[5-(dimethoxymethyl)-4,5-dihydro-1,3-thiazol-2-yl]-2-methyl-4H-thieno[3,2-b]pyrrol-3-yl}-N-methylthiophene-2-sulfonamide] |  | 185 °C
7 | CON(C)C(=O)c1cc2sc(C)c(N(C)S(=O)(=O)c3cccs3)c2[nH]1 [Example 13, N-methoxy-N,2-dimethyl-3-[methyl(2-thienylsulfonyl)amino]-4H-thieno[3,2-b]pyrrole-5-carboxamide] |  | 187 °C
8 | CCOC(=O)C(=O)NNC(=O)c1cc2sc(C)c(N(C)S(=O)(=O)c3cccs3)c2[nH]1 [Example 9, ethyl [2-({2-methyl-3-[methyl(2-thienylsulfonyl)amino]-4H-thieno[3,2-b]pyrrol-5-yl}carbonyl)hydrazino](oxo)acetate] |  | 135 °C
9 | Cc1sc2cc(C3=NCCS3)[nH]c2c1N(C)S(=O)(=O)c1cccs1 [Example 5, N-[5-(4,5-dihydro-1,3-thiazol-2-yl)-2-methyl-4H-thieno[3,2-b]pyrrol-3-yl]-N-methylthiophene-2-sulfonamide] | 74 nM | 140 °C
10 | Cc1sc2cc(C(=O)NCC3(SCc4ccccc4)CCNCC3)[nH]c2c1N(C)S(=O)(=O)c1cccs1 [Example 6, N-{[4-(benzylthio)piperidin-4-yl]methyl}-2-methyl-3-[methyl(2-thienylsulfonyl)amino]-4H-thieno[3,2-b]pyrrole-5-carboxamide] |  | 222 °C
11 | CCOC(=O)c1cc2sc(C)c(N(C)S(=O)(=O)c3cccs3)c2[nH]1 [Example 3, ethyl 2-methyl-3-[methyl(2-thienylsulfonyl)amino]-4H-thieno[3,2-b]pyrrole-5-carboxylate] |  | 161 °C
12 | CCOC(=O)c1cc2c([nH]1)c(N(C)S(=O)(=O)c1cccs1)cn2CC [Example 15, ethyl 4-ethyl-6-[methyl(2-thienylsulfonyl)amino]-1,4-dihydropyrrolo[3,2-b]pyrrole-2-carboxylate] |  | 122 °C
13 | CCOC(=O)c1cc2sc(C)c(N(C)C(=O)OCc3ccccc3)c2[nH]1 [Example 2, ethyl 3-{[(benzyloxy)carbonyl](methyl)amino}-2-methyl-4H-thieno[3,2-b]pyrrole-5-carboxylate] |  | 122 °C
14 | CC(=O)N1CCC2(CC1)CN=C(c1cc3sc(C)c(N(C)S(=O)(=O)c4cccs4)c3[nH]1)S2 [Example 8, N-[5-(8-acetyl-1-thia-3,8-diazaspiro[4.5]deca-2-en-2-yl)-2-methyl-4H-thieno[3,2-b]pyrrol-3-yl]-N-methylthiophene-2-sulfonamide] | 160 nM | 231 °C
15 | Cc1sc2cc(C3=NCC4(CCNCC4)S3)[nH]c2c1N(C)S(=O)(=O)c1cccs1 [Example 7, N-methyl-N-[2-methyl-5-(1-thia-3,8-diazaspiro[4.5]deca-2-en-2-yl)-4H-thieno[3,2-b]pyrrol-3-yl]thiophene-2-sulfonamide] |  | 196 °C
